From US8608842B2, “Infrared absorbing composition, infrared absorbing ink, recorded article, image recording method, and image detecting method” (FUJIFILM Corporation, priority 2010, dated 2013) come the findings set out here.

Read-outs that look alike come from different tables or passages of the source.

Assay type in all cases: physicochemical
Data set [1] is described as follows: Ultraviolet curable ink of Example 4: reflected light of mark for copy protection, before and after xenon irradiation. The following applies: xenon light of 70,000 lux, 72 hours; variation compared to the value before irradiation. On the procedure:
By mixing the components of the composition shown below, an ultraviolet curable ink having an infrared absorbing property was prepared.
By using the ultraviolet curable ink thus obtained, a mark for copy protection was printed on the same base paper as that used in Example 1 by Gravure printing. On top of the printed mark for copy protection, each of the three kinds of a process ink (FDOL Yellow, FDOL Magenta, and FDOL Cyan, trade names, manufactured by TOYO INK MFG. CO., LTD.) was applied as a layer by Gravure printing, or a mixture ink in which the three kinds of a process ink are mixed was applied as a layer by Gravure printing to hide the mark for copy protection, thus obtaining a printed article.
The mark for copy protection that is hidden by the process ink was irradiated with infrared light using a linear sensor (trade name: TCD1500C, manufactured by Toshiba) in which the infrared cut-off filter of linear sensor was replaced with an infrared transmitting filter (trade name: IR83, manufactured by Hoya) as a detection device, and the reflected light was detected simultaneously.
The reflection light intensity in the area of the mark for copy protection at the time of detecting the mark was divided by the reflection light intensity of the area outside the mark for copy protection. The resulting value of the comparative infrared absorbing agent A was set to 1, and a ratio of the resulting value with respect to the resulting value of the comparative infrared absorbing agent A was calculated for each compound.
In addition, the obtained printed article was irradiated continuously with xenon light of 70,000 lux for 72 hours by using a Xenon lamp. After the irradiation, similar to above, the reflection light intensity of the area of the mark for copy protection was divided by the reflection light intensity of the area outside the mark for copy protection, and the variation ratio [%] compared to the value before the irradiation was calculated to use it as an index for evaluation of light resistance.

Data set [2] can be described thus: Solubility of IR coloring material in toluene at 25° C. On the procedure:
Specifics are as follows.
First, a tetrahydrofuran (THF) solution prepared by adding the IR coloring material to TI-IF is measured by a spectrophotometer and a calibration curve is constructed. Next, a liquid is prepared by adding the IR coloring material to toluene to the level that there is a part of the coloring material left undissolved. The resulting liquid is subjected to ultrasonication for 10 minutes while being maintained at 25° C., and allowed to stand overnight at 25° C. The THF solution obtained after the standing is filtered using a 0.2 μm filter. The filtrate is diluted so that it falls within the linear range of the calibration curve, the absorbance is measured, and quantification is made using the calibration curve.
The solubility shown in Table 1 was measured according to the method described below. Specifics are as follows.
First, the THF solution prepared by adding the IR coloring material to tetrahydrofuran (THF) was measured by a spectrophotometer, and the calibration curve was established. Next, a liquid was prepared by adding the IR coloring material to toluene to the level that there is a part of coloring material left undissolved. The resulting liquid was subjected to ultrasonication for 10 minutes while being kept at 25° C., and allowed to stand overnight at 25° C. The THF solution obtained after the standing was filtered using a 0.2 μm filter. The filtrate was diluted so that it falls within the linear range of the calibration curve, and the absorbance was measured. Based on the measured value, the solubility was quantified using the calibration curve.

Data set [3] can be described thus: Bar code pattern reading (PCS) of printed article before and after xenon light irradiation (light resistance). Particulars: xenon light of 70,000 lux, 200 hours. As for the experimental part:
By mixing the components of the composition shown below, the infrared absorbing printing ink (1) was prepared.
By using each of the infrared absorbing printing ink obtained above, a bar code pattern was formed on a regular paper (trade name: MP-120, manufactured by PLUS Corporation), i.e., a base paper, by Gravure printing.
Subsequently, on the formed bar code pattern, another bar code pattern was additionally formed by using the infrared absorbing ink (2) having the composition shown below.
Next, on top of the bar code patterns formed by disposing two layers, three kinds of process inks having infrared transmittance (FDOL Yellow, FDOL Magenta, and FDOL Cyan, manufactured by TOYO INK MFG. CO., LTD. (trade names, manufactured by TOYO INK MFG. CO., LTD.) were further applied by Gravure printing to form a colored layer made of three visible colors (cyan, magenta, and yellow). As a result, a printed article having a bar code pattern disposed inside the matter was produced.
Two kinds of semiconductor laser beam having wavelengths of 830 nm and 905 nm respectively were irradiated onto the thus obtained printed article, and the detection was made by using a filter which cuts off the emission light having wavelength of 950 nm or less. As a result, it was possible to detect the pattern formed by the infrared absorbing ink.
Subsequently, xenon light of 70,000 lux was irradiated continuously for 200 hours onto the printed article by using a xenon lamp. After that, the reading state of the bar code pattern after the irradiation was evaluated. For the evaluation, PCS (print•contrast•signal) of 0.6 or more was evaluated as “good,” and PCS (print•contrast•signal) of less than 0.6 was evaluated as “bad.” The evaluation results are shown in Table 2 below.
The printed article was prepared in the same manner as Example 1 except that the solvent (a mixture solvent of toluene and methyl isobutyl ketone) in the composition of the infrared absorbing ink (1) and (2) is replaced with n-octane (SP value: 7.6), butyl acetate (SP value: 8.5), or isopropyl alcohol (IPA; SP values: 11.5), and evaluated.
The comparative printed article was prepared in the same manner as Example 1 except that the solvent (a mixture solvent of toluene and methyl isobutyl ketone) in the composition of the infrared absorbing ink (1) and (2) is replaced with n-pentane (SP value: 7.0; Example 2) or ethanol (SP value: 12.7; Example 3), and evaluated.

The mark [4] stands for this setting: Example 2, ink solvent n-pentane (SP value: 7.0).
Setting [5] is: Example 3, ink solvent ethanol (SP value: 12.7).
Where [6] appears, read: ink solvent IPA (SP value: 11.5).
Where [7] appears, read: ink solvent butyl acetate (SP value: 8.5).
[8] abbreviates: ink solvent n-octane (SP value: 7.6).
[9] abbreviates: ink solvent toluene/methyl isobutyl ketone = 70/30.

For `CCOc1c2c(c(OCC)c3ccccc13)-c1nc-2nc2[n-]c(nc3nc(nc4[n-]c(n1)c1c(OCC)c5ccccc5c(OCC)c41)-c1c-3c(OCC)c3ccccc3c1OCC)c1c(OCC)c3ccccc3c(OCC)c21.[Cu+2]` [Compound 23], in data set [1], the “Variation amount after irradiation [%]” value was found to be 4%. The “Solubility [mg/ml] Solvent: toluene” value in data set [2] (toluene, 25° C.) came out at 1.75 mg/mL. The Reading after irradiation entry was “Bad (PCS (print•contrast•signal) of less than 0.6 was evaluated as “bad.”)” in data set [3] (setting [4]); “Bad (PCS (print•contrast•signal) of less than 0.6 was evaluated as “bad.”)” in data set [3] (setting [5]); “Good (PCS (print•contrast•signal) of 0.6 or more was evaluated as “good,”)” in data set [3] (setting [6]); “Good (PCS (print•contrast•signal) of 0.6 or more was evaluated as “good,”)” in data set [3] (setting [7]); “Good (PCS (print•contrast•signal) of 0.6 or more was evaluated as “good,”)” in data set [3] (setting [8]); “Good (PCS (print•contrast•signal) of 0.6 or more was evaluated as “good,”)” in data set [3] (setting [9]).
Turning to `CCCCOc1c2c(c(OCCCC)c3ccccc13)C1=Nc3c4c(OCCCC)c5ccccc5c(OCCCC)c4c4[n]3[Cu][n]3c(c5c(OCCCC)c6ccccc6c(OCCCC)c5c3=NC3=NC(=N4)c4c3c(OCCCC)c3ccccc3c4OCCCC)=NC2=N1` [Compound 24], in data set [1], the “Variation amount after irradiation [%]” value worked out at 3%. Moreover, the “Solubility [mg/ml] Solvent: toluene” value in data set [2] (toluene, 25° C.) is 16 mg/mL. Also, the Reading after irradiation entry in data set [3] (setting [4]) is reported as “Bad (PCS (print•contrast•signal) of less than 0.6 was evaluated as “bad.”)”; in data set [3] (setting [5]), “Bad (PCS (print•contrast•signal) of less than 0.6 was evaluated as “bad.”)”; in data set [3] (setting [6]), “Good (PCS (print•contrast•signal) of 0.6 or more was evaluated as “good,”)”; in data set [3] (setting [7]), “Good (PCS (print•contrast•signal) of 0.6 or more was evaluated as “good,”)”; in data set [3] (setting [8]), “Good (PCS (print•contrast•signal) of 0.6 or more was evaluated as “good,”)”; in data set [3] (setting [9]) it was “Good (PCS (print•contrast•signal) of 0.6 or more was evaluated as “good,”)”.
As for `CCCCCCCCOc1c2c(c(OCCCCCCCC)c3ccccc13)C1=Nc3c4c(OCCCCCCCC)c5ccccc5c(OCCCCCCCC)c4c4[n]3[Cu][n]3c(c5c(OCCCCCCCC)c6ccccc6c(OCCCCCCCC)c5c3=NC3=NC(=N4)c4c3c(OCCCCCCCC)c3ccccc3c4OCCCCCCCC)=NC2=N1` [Compound 25], the “Variation amount after irradiation [%]” value in data set [1] stood at 2%. For the same compound, in data set [2] (toluene, 25° C.), the “Solubility [mg/ml] Solvent: toluene” value was 27 mg/mL. Further, the Reading after irradiation result in data set [3] (setting [4]) is “Bad (PCS (print•contrast•signal) of less than 0.6 was evaluated as “bad.”)”; in data set [3] (setting [5]), “Bad (PCS (print•contrast•signal) of less than 0.6 was evaluated as “bad.”)”; in data set [3] (setting [6]) it was “Good (PCS (print•contrast•signal) of 0.6 or more was evaluated as “good,”)”; in data set [3] (setting [7]), “Good (PCS (print•contrast•signal) of 0.6 or more was evaluated as “good,”)”; in data set [3] (setting [8]) it was “Good (PCS (print•contrast•signal) of 0.6 or more was evaluated as “good,”)”; in data set [3] (setting [9]), “Good (PCS (print•contrast•signal) of 0.6 or more was evaluated as “good,”)”.
As to `CCCCCCCCOc1c2c(c(OCCCCCCCC)c3ccccc13)C1=Nc3c4c(OCCCCCCCC)c5ccccc5c(OCCCCCCCC)c4c4[n]3[Zn][n]3c(c5c(OCCCCCCCC)c6ccccc6c(OCCCCCCCC)c5c3=NC3=NC(=N4)c4c3c(OCCCCCCCC)c3ccccc3c4OCCCCCCCC)=NC2=N1` [Compound 27], the “Variation amount after irradiation [%]” value in data set [1] was 4%. Moreover, the “Solubility [mg/ml] Solvent: toluene” value in data set [2] was found to be 25 mg/mL. The Reading after irradiation entry in data set [3] (setting [4]) is “Bad (PCS (print•contrast•signal) of less than 0.6 was evaluated as “bad.”)”; in data set [3] (setting [5]), “Bad (PCS (print•contrast•signal) of less than 0.6 was evaluated as “bad.”)”; in data set [3] (setting [6]) it was “Good (PCS (print•contrast•signal) of 0.6 or more was evaluated as “good,”)”; in data set [3] (setting [7]), “Good (PCS (print•contrast•signal) of 0.6 or more was evaluated as “good,”)”; in data set [3] (setting [8]), “Good (PCS (print•contrast•signal) of 0.6 or more was evaluated as “good,”)”; in data set [3] (setting [9]), “Good (PCS (print•contrast•signal) of 0.6 or more was evaluated as “good,”)”.
In the case of `Nc1ccccc1Sc1c2c(c(Sc3ccccc3N)c3c1C1=Nc4c5c(Sc6ccccc6N)c6c(c(Sc7ccccc7N)c5c5[n]4[Cu][n]4c(c7c(Sc8ccccc8N)c8c(c(Sc9ccccc9N)c7c4=NC4=NC(=N5)c5c(Sc7ccccc7N)c7c(c(Sc9ccccc9N)c54)NC4C=CC=CC4S7)SC4C=CC=CC4N8)=NC3=N1)NC1C=CC=CC1S6)SC1C=CC=CC1N2` (stereo not shown) [Compound 69], the “Variation amount after irradiation [%]” value in data set [1] came to 4%. Moreover, the “Solubility [mg/ml] Solvent: toluene” value in data set [2] (toluene, 25° C.) amounted to 12 mg/mL. Also, the Reading after irradiation entry is “Bad (PCS (print•contrast•signal) of less than 0.6 was evaluated as “bad.”)” in data set [3] (setting [4]); “Bad (PCS (print•contrast•signal) of less than 0.6 was evaluated as “bad.”)” in data set [3] (setting [5]); “Good (PCS (print•contrast•signal) of 0.6 or more was evaluated as “good,”)” in data set [3] (setting [6]); “Good (PCS (print•contrast•signal) of 0.6 or more was evaluated as “good,”)” in data set [3] (setting [7]); “Good (PCS (print•contrast•signal) of 0.6 or more was evaluated as “good,”)” in data set [3] (setting [8]); “Good (PCS (print•contrast•signal) of 0.6 or more was evaluated as “good,”)” in data set [3] (setting [9]).
